Measured values published in patent publication US10669242B2 (priority 2016, dated 2020).

Columns and labels:
[1] = molecular target: T1, C. difficile full-length toxin TcdB (Clostridioides difficile, UniProt P18177); assay: cell-based
T1 construct: C. difficile full-length toxins (TcdA or TcdB); purchased EMD Millipore 616377

[2] = tested on: C. difficile toxin (TcdA and TcdB, ~1:1); assay: Murine C. difficile toxin model (intrarectal toxin); type: in vivo, C57BL/6 mice; details: murine C. difficile toxin model, PO, 50 mg/kg body weight
Method: In the following studies, we established a murine C. difficile toxin model with modifications from a published murine model (Hirota, Iablokov et al. 2012). Details of the murine C. difficile toxin model are described in the “Experimental Protocols” (below). C. difficile toxins were isolated from a culture of the C. difficile strain VPI 10463. C. difficile toxins consisted of TcdA and TcdB (˜1:1 ratio of TcdA:TcdB). Respective TcdA and TcdB concentrations were determined by enzyme-linked immunosorbant assay (ELISA). In our mouse model, C. difficile toxins were administered intrarectally to evaluate their pathological effects.
We administered C. difficile toxin (12.5 μg/mouse) via intrarectal instillation into female C57BL/6 mice. Four (4) animals were used in each group. Four (4) hours after the toxin administration, the mice were euthanized. The colons were excised from the animals and washed with phosphate buffered saline (PBS). The colon lengths were measured. Excised colon tissues were stored at −70° C. for chemical analysis of interleukin-1β(IL-1β) and myeloperosidase (MPO) in tissues, which are the hallmarks of colon inflammation. Excised colon tissues were also stored at room temperature in 10% neutral buffered formalin for histopathological analysis.
Using the murine C. difficile toxin model (Example 61), we evaluated the efficacy of Example 6a in reducing the C. difficile toxin activity. In this study, the isolated toxin (12.5 μg) was diluted in 50 μl of PBS and mixed with a 50 μl suspension of Example 6a (10 mg/mL) in 1% carboxymethyl cellulose and 0.5% Tween 80 to achieve a fixed dose of […] of Example 6a (0.5 mg in mice weighing ˜20 g) and C. difficile toxin (12.5 μg). Three (3) animals were used in each group.
In this study, we evaluated the efficacy of Example 6a via different routes of administration (i.e., oral (PO) and intraperitoneal (IP) administrations) in the same murine C. difficile toxin model (Example 61). In both PO and IP dosages, Example 6a was prepared as 5 mg/mL solutions in 20% PEG-400, 0.4% carboxymethyl cellulose and 0.2% Tween 80. Example 6a was administered at a final dose of 50 mg/kg body weight. Three (3) mice were used in each group (i.e., vehicle (control), PO and IP).
Using the murine C. difficile toxin model (Example 63), we further tested the efficacy of four (4) additional compounds (i.e., Example 6a, Example 5ae, Example 4cl, and Example 5al) via PO administration. All of the compounds were dosed orally at 50 mg/kg body weight. In three separate studies a total of three (3) to fourteen (14) mice were used in each group.
We evaluated the efficacy of additional compounds in reducing C. difficile toxicity. Using the PO administration (Example 63), we further tested 30 compounds (Table 34). All of the compounds were dosed orally at 50 mg/kg body weight. Three (3) to fourteen (14) animals were used for each compound. % inhibition was determined by the following formula: […]
An overnight culture of C. difficile strain VPI 10463 (American Type Culture Collection) was grown at 37° C. in Brain-Heart Infusion (BHI) broth using the GasPak EZ Anaerobe Pouch System (Becton Dickinson). 2 mL of the culture was added to 28 mL of phosphate buffered saline (PBS) in a gamma-irradiated, 10,000 molecular weight cut-off, 30-70 ml Slide-A-Lyzer G2 dialysis cassette (Pierce). This cassette was submerged in 1 L of BHI broth in a 2 L beaker and incubated under anaerobic conditions for 5 days at 37° C. The culture was then transferred to a 50 mL conical tube and the cassette was washed with 10 mL of PBS. The combined culture and wash were centrifuged at 2,000 g for 20 minutes to pellet the bacteria and the supernatant was filtered through a 0.2 μm syringe filter. The filtrate was then applied to a 20 mL 150 K molecular weight cut-off concentration column (Pierce) and centrifuged at 2,000 g for 15 minutes. Concentrated supernatant was stored at 4° C. […]

[3] = molecular target: T2, recombinant glucosyltransferase domain of C. difficile Toxin B/TcdB (Clostridioides difficile, UniProt P18177); assay: biochemical
T2 construct: 6-His (C); purchased R&D Systems 6246-GT
T2 sequence (P18177 1-543): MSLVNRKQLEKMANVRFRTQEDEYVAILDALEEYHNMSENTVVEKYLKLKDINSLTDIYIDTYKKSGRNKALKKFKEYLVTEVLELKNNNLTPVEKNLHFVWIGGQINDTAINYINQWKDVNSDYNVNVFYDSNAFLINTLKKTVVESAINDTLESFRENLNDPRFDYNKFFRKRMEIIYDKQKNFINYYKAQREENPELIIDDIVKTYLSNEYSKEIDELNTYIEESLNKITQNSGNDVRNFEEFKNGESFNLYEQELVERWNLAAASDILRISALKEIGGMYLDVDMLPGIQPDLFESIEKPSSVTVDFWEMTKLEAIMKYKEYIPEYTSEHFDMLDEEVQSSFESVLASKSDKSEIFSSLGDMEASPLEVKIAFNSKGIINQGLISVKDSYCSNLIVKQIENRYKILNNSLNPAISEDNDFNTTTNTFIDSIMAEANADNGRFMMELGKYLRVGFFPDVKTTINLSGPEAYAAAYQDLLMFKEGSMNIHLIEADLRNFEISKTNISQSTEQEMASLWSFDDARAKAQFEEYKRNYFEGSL

[4] = molecular target: T3, C. difficile full-length toxin TcdA (Clostridioides difficile, UniProt P16154); assay: cell-based
T3 construct: C. difficile full-length toxins (TcdA or TcdB); purchased Enzo Life Sciences BML-G140-0050
T3 sequence (P16154 whole entry, looked up): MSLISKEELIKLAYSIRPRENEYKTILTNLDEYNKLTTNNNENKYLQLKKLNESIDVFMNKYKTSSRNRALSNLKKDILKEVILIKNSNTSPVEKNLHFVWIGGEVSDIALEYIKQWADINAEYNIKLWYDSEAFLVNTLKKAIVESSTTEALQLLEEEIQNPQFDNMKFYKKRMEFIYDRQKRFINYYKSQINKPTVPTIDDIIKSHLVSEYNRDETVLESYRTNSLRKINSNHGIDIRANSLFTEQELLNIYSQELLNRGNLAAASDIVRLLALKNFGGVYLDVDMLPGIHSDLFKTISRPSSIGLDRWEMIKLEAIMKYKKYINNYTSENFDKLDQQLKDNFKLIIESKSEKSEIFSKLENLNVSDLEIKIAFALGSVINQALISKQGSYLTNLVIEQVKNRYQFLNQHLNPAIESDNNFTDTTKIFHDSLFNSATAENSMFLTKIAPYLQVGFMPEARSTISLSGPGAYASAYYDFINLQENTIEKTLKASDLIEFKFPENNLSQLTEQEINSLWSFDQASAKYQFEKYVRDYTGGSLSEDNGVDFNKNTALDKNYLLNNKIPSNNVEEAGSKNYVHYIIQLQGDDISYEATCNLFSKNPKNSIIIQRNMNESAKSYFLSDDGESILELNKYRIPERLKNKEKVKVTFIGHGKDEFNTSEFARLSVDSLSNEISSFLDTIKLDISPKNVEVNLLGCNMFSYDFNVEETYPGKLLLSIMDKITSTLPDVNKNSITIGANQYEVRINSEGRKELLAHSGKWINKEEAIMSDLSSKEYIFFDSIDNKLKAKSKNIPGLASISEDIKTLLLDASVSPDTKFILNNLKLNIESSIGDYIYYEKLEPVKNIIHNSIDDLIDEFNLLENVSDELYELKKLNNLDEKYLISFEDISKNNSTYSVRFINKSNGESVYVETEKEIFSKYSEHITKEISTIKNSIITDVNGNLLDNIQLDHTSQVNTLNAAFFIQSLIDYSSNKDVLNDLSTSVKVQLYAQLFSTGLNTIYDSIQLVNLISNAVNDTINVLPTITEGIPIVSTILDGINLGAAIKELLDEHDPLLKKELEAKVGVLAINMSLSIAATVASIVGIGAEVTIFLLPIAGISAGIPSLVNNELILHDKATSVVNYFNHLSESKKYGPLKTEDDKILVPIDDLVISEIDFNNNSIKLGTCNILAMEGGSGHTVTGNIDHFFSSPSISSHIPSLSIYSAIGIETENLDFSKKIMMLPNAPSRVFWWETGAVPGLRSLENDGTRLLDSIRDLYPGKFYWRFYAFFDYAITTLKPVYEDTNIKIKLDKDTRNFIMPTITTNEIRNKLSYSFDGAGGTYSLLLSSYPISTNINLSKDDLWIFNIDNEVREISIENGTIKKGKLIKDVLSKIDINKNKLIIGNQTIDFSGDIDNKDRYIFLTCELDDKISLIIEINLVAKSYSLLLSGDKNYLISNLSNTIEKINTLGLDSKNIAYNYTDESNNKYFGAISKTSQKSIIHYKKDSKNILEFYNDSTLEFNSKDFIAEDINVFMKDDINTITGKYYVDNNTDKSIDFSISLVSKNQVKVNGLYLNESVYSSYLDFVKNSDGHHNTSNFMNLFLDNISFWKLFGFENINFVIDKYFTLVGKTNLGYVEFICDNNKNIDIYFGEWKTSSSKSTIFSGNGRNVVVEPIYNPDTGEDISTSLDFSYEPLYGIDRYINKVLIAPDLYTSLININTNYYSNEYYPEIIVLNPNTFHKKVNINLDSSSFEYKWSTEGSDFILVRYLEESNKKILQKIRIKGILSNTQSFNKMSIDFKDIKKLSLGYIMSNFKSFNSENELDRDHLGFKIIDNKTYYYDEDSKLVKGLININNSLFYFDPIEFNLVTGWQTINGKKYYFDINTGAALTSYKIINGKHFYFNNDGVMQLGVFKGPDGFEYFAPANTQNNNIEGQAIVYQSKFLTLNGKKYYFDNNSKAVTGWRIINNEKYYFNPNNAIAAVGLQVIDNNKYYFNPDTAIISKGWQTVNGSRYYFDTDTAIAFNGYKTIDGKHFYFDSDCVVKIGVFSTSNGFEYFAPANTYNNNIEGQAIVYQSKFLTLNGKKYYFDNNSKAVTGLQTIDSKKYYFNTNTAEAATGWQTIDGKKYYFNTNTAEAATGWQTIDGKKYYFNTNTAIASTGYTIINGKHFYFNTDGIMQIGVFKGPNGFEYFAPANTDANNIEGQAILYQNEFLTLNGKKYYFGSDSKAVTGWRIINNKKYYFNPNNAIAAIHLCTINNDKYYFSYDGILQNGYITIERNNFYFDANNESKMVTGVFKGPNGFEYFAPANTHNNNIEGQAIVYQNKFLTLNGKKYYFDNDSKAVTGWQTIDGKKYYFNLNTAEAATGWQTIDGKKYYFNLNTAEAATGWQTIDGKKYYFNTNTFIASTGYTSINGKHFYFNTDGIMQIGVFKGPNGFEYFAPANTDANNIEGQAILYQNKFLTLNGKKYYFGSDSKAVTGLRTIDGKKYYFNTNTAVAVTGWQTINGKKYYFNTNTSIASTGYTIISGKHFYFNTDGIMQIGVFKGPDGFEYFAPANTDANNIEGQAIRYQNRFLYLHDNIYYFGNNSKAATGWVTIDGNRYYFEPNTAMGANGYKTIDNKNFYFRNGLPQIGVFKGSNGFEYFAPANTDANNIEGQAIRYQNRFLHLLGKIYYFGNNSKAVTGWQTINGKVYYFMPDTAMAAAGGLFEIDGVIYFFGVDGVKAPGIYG

With `COc1cnc(NC(=O)c2ccc(CN3C(=O)c4ccc(Cl)cc4NC(=O)[C@H]3Cc3ccccn3)cc2Cl)cn1` [Example 4ci, (R)-2-Chloro-4-((8-chloro-2,5-dioxo-3-(pyridin-2-ylmethyl)-2,3-dihydro-1H-benzo[e][1,4]diazepin-4(5H)-yl)methyl)-N-(5-methoxypyrazin-2-yl)benzamide] the IC50 [1] was 100 to 999 nM, the “IL-1β (% Inhibition)” value [2] was 86% and the “MPO (% Inhibition)” value [2] was 19%. The IC50 [3] was < 100 nM and the IC50 [4] was 1000 to 10000 nM.

`Cc1ccc(NC(=O)c2ccc(CN3C(=O)c4ccc(Cl)cc4NC(=O)[C@H]3Cc3ccccn3)cc2C)nc1` [Example 4ck, (R)-4-((8-Chloro-2,5-dioxo-3-(pyridin-2-ylmethyl)-2,3-dihydro-1H-benzo[e][1,4]diazepin-4(5H)-yl)methyl)-2-methyl-N-(5-methylpyridin-2-yl)benzamide] was tested, and the IC50 [1] was < 100 nM, the “IL-1β (% Inhibition)” value [2] was 82% and the “MPO (% Inhibition)” value [2] was 79%. For the same molecule, the IC50 [3] was < 100 nM and the IC50 [4] was 100 to 999 nM.

`COc1cc(CN2C(=O)c3ccc(Cl)cc3NC(=O)[C@H]2Cc2ccccn2)ccc1C(=O)Nc1ccc(C)cn1` [Example 4cm, (R)-4-((8-Chloro-2,5-dioxo-3-(pyridin-2-ylmethyl)-2,3-dihydro-1H-benzo[e][1,4]diazepin-4(5H)-yl)methyl)-2-methoxy-N-(5-methylpyridin-2-yl)benzamide] was tested, and the IC50 [1] was 100 to 999 nM, the “IL-1β (% Inhibition)” value [2] was 49% and the “MPO (% Inhibition)” value [2] was 35%. For the same molecule, the IC50 [3] was < 100 nM and the IC50 [4] was > 10000 nM.

In the case of `Cc1cnc(NC(=O)c2ccc(CN3C(=O)c4ccc(Cl)cc4NC(=O)[C@H]3Cc3ccccn3)cc2Cl)cn1` [Example 5aa, (R)-2-Chloro-4-((8-chloro-2,5-dioxo-3-(pyridin-2-ylmethyl)-2,3-dihydro-1H-benzo[e][1,4]diazepin-4(5H)-yl)methyl)-N-(5-methylpyrazin-2-yl)benzamide], the IC50 [1] is reported as 100 to 999 nM, the “IL-1β (% Inhibition)” value [2] is reported as 63% and the “MPO (% Inhibition)” value [2] is reported as 50%. The IC50 [3] was < 100 nM and the IC50 [4] was 1000 to 10000 nM.

`COc1cnc(NC(=O)c2ccc(CN3C(=O)c4ccc(Cl)cc4NC(=O)[C@H]3Cc3ccccn3)cc2Cl)nc1` [Example 5ab, (R)-2-Chloro-4-((8-chloro-2,5-dioxo-3-(pyridin-2-ylmethyl)-2,3-dihydro-1H-benzo[e][1,4]diazepin-4(5H)-yl)methyl)-N-(5-methoxypyrimidin-2-yl)benzamide] was tested, and the IC50 [1] was < 100 nM, the “IL-1β (% Inhibition)” value [2] was 100% and the “MPO (% Inhibition)” value [2] was 100%. For the same molecule, the IC50 [3] was < 100 nM and the IC50 [4] was 1000 to 10000 nM.

In the case of `COc1cnc(NC(=O)c2ccc(CN3C(=O)c4ccc(Cl)cc4NC(=O)[C@H]3Cc3ccccn3)cc2C)cn1` [Example 5af, (R)-4-((8-Chloro-2,5-dioxo-3-(pyridin-2-ylmethyl)-2,3-dihydro-1H-benzo[e][1,4]diazepin-4(5H)-yl)methyl)-N-(5-methoxypyrazin-2-yl)-2-methylbenzamide], the IC50 [1] is reported as 100 to 999 nM, the “IL-1β (% Inhibition)” value [2] is reported as 100% and the “MPO (% Inhibition)” value [2] is reported as 100%. The IC50 [3] was < 100 nM and the IC50 [4] was 1000 to 10000 nM.

For `Cc1cnc(NC(=O)c2ccc(CN3C(=O)c4ccc(Cl)cc4NC(=O)[C@H]3Cc3ccccn3)cc2C)cn1` [Example 5ah, (R)-4-((8-Chloro-2,5-dioxo-3-(pyridin-2-ylmethyl)-2,3-dihydro-1H-benzo[e][1,4]diazepin-4(5H)-yl)methyl)-2-methyl-N-(5-methylpyrazin-2-yl)benzamide], the IC50 [1] was 100 to 999 nM, the “IL-1β (% Inhibition)” value [2] was 91% and the “MPO (% Inhibition)” value [2] was 65%. The IC50 [3] was < 100 nM and the IC50 [4] was 1000 to 10000 nM.

In the case of `COc1cnc(NC(=O)c2ccc(CN3C(=O)c4ccc(Cl)cc4NC(=O)[C@H]3Cc3ccccn3)cc2C)nc1` [Example 5ai, (R)-4-((8-Chloro-2,5-dioxo-3-(pyridin-2-ylmethyl)-2,3-dihydro-1H-benzo[e][1,4]diazepin-4(5H)-yl)methyl)-N-(5-methoxypyrimidin-2-yl)-2-methylbenzamide], the IC50 [1] is reported as < 100 nM, the “IL-1β (% Inhibition)” value [2] is reported as 96% and the “MPO (% Inhibition)” value [2] is reported as 79%. The IC50 [3] was < 100 nM and the IC50 [4] was 100 to 999 nM.

For `COc1cc(CN2C(=O)c3ccc(Cl)cc3NC(=O)[C@H]2Cc2ccccn2)ccc1C(=O)Nc1cnc(C)cn1` [Example 5aj, (R)-4-((8-Chloro-2,5-dioxo-3-(pyridin-2-ylmethyl)-2,3-dihydro-1H-benzo[e][1,4]diazepin-4(5H)-yl)methyl)-2-methoxy-N-(5-methylpyrazin-2-yl)benzamide], the IC50 [1] was 100 to 999 nM, the “IL-1β (% Inhibition)” value [2] was 76% and the “MPO (% Inhibition)” value [2] was 17%. For the same molecule, the IC50 [3] was < 100 nM and the IC50 [4] was 1000 to 10000 nM.

With `COc1cnc(NC(=O)c2ccc(CN3C(=O)c4ccc(Cl)cc4NC(=O)[C@H]3Cc3ccccn3)cc2OC)cn1` [Example 5ak, (R)-4-((8-Chloro-2,5-dioxo-3-(pyridin-2-ylmethyl)-2,3-dihydro-1H-benzo[e][1,4]diazepin-4(5H)-yl)methyl)-2-methoxy-N-(5-methoxypyrazin-2-yl)benzamide] the IC50 [1] was 100 to 999 nM, the “IL-1β (% Inhibition)” value [2] was 71% and the “MPO (% Inhibition)” value [2] was 73%. For the same molecule, the IC50 [3] was < 100 nM and the IC50 [4] was 1000 to 10000 nM.

For `COc1cc(CN2C(=O)c3ccc(Cl)cc3NC(=O)[C@H]2Cc2ccccn2)ccc1C(=O)Nc1ncc(C)cn1` [Example 5am, (R)-4-((8-Chloro-2,5-dioxo-3-(pyridin-2-ylmethyl)-2,3-dihydro-1H-benzo[e][1,4]diazepin-4(5H)-yl)methyl)-2-methoxy-N-(5-methylpyrimidin-2-yl)benzamide], the IC50 [1] was 100 to 999 nM, the “IL-1β (% Inhibition)” value [2] was 54% and the “MPO (% Inhibition)” value [2] was 31%. For the same molecule, the IC50 [3] was < 100 nM and the IC50 [4] was 1000 to 10000 nM.

In the case of `COc1cnc(NC(=O)c2ccc(CN3C(=O)c4ccc(Cl)cc4NC(=O)[C@H]3Cc3ccccn3)cc2OC)nc1` [Example 5an, (R)-4-((8-Chloro-2,5-dioxo-3-(pyridin-2-ylmethyl)-2,3-dihydro-1H-benzo[e][1,4]diazepin-4(5H)-yl)methyl)-2-methoxy-N-(5-methoxypyrimidin-2-yl)benzamide], the IC50 [1] is reported as 100 to 999 nM, the “IL-1β (% Inhibition)” value [2] is reported as 87% and the “MPO (% Inhibition)” value [2] is reported as 63%. For the same molecule, the IC50 [3] was < 100 nM and the IC50 [4] was 1000 to 10000 nM.

For `O=C(c1ccc(CN2C(=O)c3ccc(Cl)cc3NC(=O)[C@H]2Cc2ccccn2)cc1)c1ccccn1` [Example 11a, (R)-8-Chloro-4-(4-picolinoylbenzyl)-3-(pyridin-2-ylmethyl)-3,4-dihydro-1H-benzo[e][1,4]diazepine-2,5-dione], the IC50 [1] was 1000 to 10000 nM, the “IL-1β (% Inhibition)” value [2] was 22% and the “MPO (% Inhibition)” value [2] was 0%. The IC50 [3] was < 100 nM and the IC50 [4] was > 10000 nM.

In the case of `Cc1ccc(C(=O)c2ccc(CN3C(=O)c4ccc(Cl)cc4NC(=O)[C@H]3Cc3ccccn3)cc2)nc1` [Example 11b, (R)-8-Chloro-4-(4-(5-methylpicolinoyl)benzyl)-3-(pyridin-2-ylmethyl)-3,4-dihydro-1H-benzo[e][1,4]diazepine-2,5-dione], the IC50 [1] is reported as 1000 to 10000 nM, the “IL-1β (% Inhibition)” value [2] is reported as 52% and the “MPO (% Inhibition)” value [2] is reported as 100%. The IC50 [3] was < 100 nM and the IC50 [4] was > 10000 nM.
